Data from patent US20060040957A1, “BICYCLIC PYRIMIDINE MATRIX METALLOPROTEINASE INHIBITORS” (priority 2001, published 2006).
Where a name gives a salt, the structure may show the parent alone.

Tests used:
Format in all cases: biochemical
[1] = target: T1, MMP-7FL (full length matrilysin) (Homo sapiens, UniProt P09237); test: Thiopeptolide substrate hydrolysis assay, MMP-7FL; details: HEPES pH 7.0, 22° C., read-out: IC50 (μM) Versus Certain MMPs: MMP-07 FL
T1 sequence (P09237 95-267): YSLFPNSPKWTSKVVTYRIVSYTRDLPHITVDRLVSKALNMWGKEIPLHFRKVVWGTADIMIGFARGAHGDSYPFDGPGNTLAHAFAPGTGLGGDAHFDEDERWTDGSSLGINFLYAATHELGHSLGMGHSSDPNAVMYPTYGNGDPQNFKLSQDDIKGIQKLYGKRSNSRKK
Source text: (§1) The invention compounds of Formula I have been evaluated in standard assays for their ability to inhibit the catalytic activity of various MMP enzymes.
(§2) Thiopeptolide substrates show virtually no decomposition or hydrolysis at or below neutral pH in the absence of a matrix metalloproteinase enzyme.
(§3) Several representative compounds have been evaluated for their ability to inhibit various matrix metalloproteinase enzymes.

[2] = target: MMP-9FL (full length Gelatinase B) (Homo sapiens, UniProt P14780); test: Thiopeptolide substrate hydrolysis assay, MMP-9FL; details: HEPES pH 7.0, 22° C., read-out: IC50 (μM) Versus Certain MMPs: MMP-09 FL
Source text: as §1, §2, §3

[3] = target: MMP-14CD (catalytic domain of MMP-14) (Homo sapiens, UniProt P50281); test: Thiopeptolide substrate hydrolysis assay, MMP-14CD; details: HEPES pH 7.0, 22° C., read-out: IC50 (μM) Versus Certain MMPs: MMP-14 CD
Source text: as §1, §2, §3

[4] = target: T2, MMP-2FL (full length Gelatinase A) (Homo sapiens, UniProt P08253); test: Thiopeptolide substrate hydrolysis assay, MMP-2FL; details: HEPES pH 7.0, 22° C., read-out: IC50 (μM) Versus Certain MMPs: MMP-02 FL
T2 sequence (P08253 110-660): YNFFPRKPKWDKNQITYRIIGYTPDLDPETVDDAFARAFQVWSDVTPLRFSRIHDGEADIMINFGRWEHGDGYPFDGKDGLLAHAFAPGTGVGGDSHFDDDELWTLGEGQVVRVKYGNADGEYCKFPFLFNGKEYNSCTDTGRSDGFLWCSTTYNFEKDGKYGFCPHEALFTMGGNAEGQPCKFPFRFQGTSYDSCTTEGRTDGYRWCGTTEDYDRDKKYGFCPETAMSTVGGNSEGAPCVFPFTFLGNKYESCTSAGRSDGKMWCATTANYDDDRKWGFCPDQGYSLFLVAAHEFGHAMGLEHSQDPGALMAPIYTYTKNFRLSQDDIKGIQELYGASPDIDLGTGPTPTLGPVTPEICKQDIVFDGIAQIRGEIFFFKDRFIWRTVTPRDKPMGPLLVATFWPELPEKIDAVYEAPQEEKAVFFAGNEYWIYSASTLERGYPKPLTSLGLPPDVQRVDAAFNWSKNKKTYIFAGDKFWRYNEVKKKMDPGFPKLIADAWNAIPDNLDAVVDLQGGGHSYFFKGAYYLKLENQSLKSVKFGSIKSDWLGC
Source text: as §1, §2, §3

Chain of MMP-9FL (full length Gelatinase B) (P14780 94-707, species assumed): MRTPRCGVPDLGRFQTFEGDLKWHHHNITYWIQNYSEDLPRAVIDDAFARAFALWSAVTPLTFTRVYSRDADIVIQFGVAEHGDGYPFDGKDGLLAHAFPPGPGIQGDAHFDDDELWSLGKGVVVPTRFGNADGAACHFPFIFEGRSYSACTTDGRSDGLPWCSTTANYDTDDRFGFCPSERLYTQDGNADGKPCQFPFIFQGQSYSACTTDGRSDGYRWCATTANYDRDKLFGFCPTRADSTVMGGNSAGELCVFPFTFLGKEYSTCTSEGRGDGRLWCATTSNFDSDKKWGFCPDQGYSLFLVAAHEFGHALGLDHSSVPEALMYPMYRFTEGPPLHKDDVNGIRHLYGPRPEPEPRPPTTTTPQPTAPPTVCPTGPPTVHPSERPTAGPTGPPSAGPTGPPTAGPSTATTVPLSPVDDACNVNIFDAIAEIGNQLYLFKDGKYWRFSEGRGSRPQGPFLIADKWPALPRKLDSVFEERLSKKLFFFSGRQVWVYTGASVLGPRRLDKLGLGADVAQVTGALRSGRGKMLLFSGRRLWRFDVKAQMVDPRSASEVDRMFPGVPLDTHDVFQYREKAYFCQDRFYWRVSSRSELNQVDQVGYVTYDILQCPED

IC50 [1] [µM]	IC50 [2] [µM]	IC50 [3] [µM]	IC50 [4] [µM]	Compound
> 30	> 100	> 100	> 100	COc1ccc(CNC(=O)c2cn3c(=O)n(Cc4ccccc4)c(=O)c(C)c3s2)cc1F [Example 46, 6-Benzyl-8-methyl-5,7-dioxo-6,7-dihydro-5H-thiazolo[3,2-c]pyrimidine-2-carboxylic acid 3-fluoro-4-methoxy-benzylamide]
> 100	> 100	> 100	> 100	Cc1c(=O)n(Cc2ccc(C(=O)OCCN(C)C)cc2)c(=O)n2cc(C(=O)NCc3ccc(F)cc3)sc12 [Example 60, 4-[2-(4-Fluoro-benzylcarbamoyl)-8-methyl-5,7-dioxo-7H-thiazolo[3,2-c]pyrimidin-6-ylmethyl]-benzoic acid 2-dimethylamino-ethyl ester]
> 100	> 100	> 100	> 100	CC#CCn1c(=O)c(C)c2sc(C(=O)NCc3ccc(F)cc3)cn2c1=O [Example 79, 6-But-2-ynyl-8-methyl-5,7-dioxo-6,7-dihydro-5H-thiazolo[3,2-c]pyrimidine-2-carboxylic acid 4-fluoro-benzylamide]
> 30	> 30	> 30	> 30	Cc1c(=O)n(Cc2ccc3oc(=O)ccc3c2)c(=O)n2cc(C(=O)NCc3ccc(F)cc3)sc12 [Example 80, 8-Methyl-5,7-dioxo-6-(2-oxo-2H-1-benzopyran-6-ylmethyl)-6,7-dihydro-5H-thiazolo[3,2-c]pyrimidine-2-carboxylic acid 4-fluoro-benzylamide]
87	> 30	> 30	> 30	COC(=O)Nc1cc(Cn2c(=O)c(C)c3sc(C(=O)NCc4ccc(F)cc4)cn3c2=O)on1 [Example 74, {5-[2-(4-Fluoro-benzylcarbamoyl)-8-methyl-5,7-dioxo-7H-thiazolo[3,2-c]pyrimidin-6-ylmethyl]-isoxazol-3-yl}-carbamic acid methyl ester]
> 100	> 100	> 100	> 100	O=C(NCc1ccccc1)c1cn2c(=O)n(Cc3ccncc3)c(=O)cc2s1 [Example 15, 6-(4-Pyridylmethyl)-5,7-dioxo-6,7-dihydro-5H-thiazolo[3,2-c]pyrimidine-2-carboxylic acid benzylamide hydrochloride]
> 30	> 30	> 30	> 30	COc1ccc(CNC(=O)c2cn3c(=O)n(Cc4ccc(C(=O)OCCN(C)C)cc4)c(=O)c(C)c3s2)cc1 [Example 57, 4-[2-(4-Methoxy-benzylcarbamoyl)-8-methyl-5,7-dioxo-7H-thiazolo[3,2c]pyrimidin-6-ylmethyl]-benzoic acid 2-dimethylamine-ethyl ester hydrochloride]
> 30	> 30	> 100	> 30	Cc1c(=O)n(Cc2ccccc2)c(=O)n2cc(C(=O)NCc3ccc(F)c(F)c3)sc12 [Example 43, 6-Benzyl-8-methyl-5,7-dioxo-6,7-dihydro-5H-thiazolo[3,2-c]pyrimidine-2-carboxylic acid 3,4-difluoro-benzylamide]
71	> 30	> 100	> 30	Cc1cccc(CNC(=O)c2cn3c(=O)n(Cc4ccccc4)c(=O)c(C)c3s2)c1 [Example 28, 6-Benzyl-8-methyl-5,7-dioxo-6,7-dihydro-5H-thiazolo[3,2-c]pyrimidine-2-carboxylic acid 3-methyl-benzylamide]
> 100	> 30	> 100	> 100	Cc1nc(Cn2c(=O)c(C)c3sc(C(=O)NCc4ccc(F)cc4)cn3c2=O)cs1 [Example 64, 8-Methyl-6-(2-methyl-thiazol-4-ylmethyl)-5,7-dioxo-6,7-dihydro-5H-thiazolo[3,2-c]pyrimidine-2-carboxylic acid 4-fluoro-benzylamide]
